This is an account of results in patent US8987257B2 (Novartis AG, priority 2011, dated 2015).

Structures are written as SMILES.

One test concerns the target PI3Kα (Homo sapiens (Human), UniProt P42336). As to the kind of experiment: Test 1: PI3 Kinase Assay (PI3K KinaseGlo assay). Particulars: 1 μM ATP. Format: biochemical.
Another test addresses FRAP1/mTOR (Homo sapiens (Human), UniProt P42345). As to the kind of experiment: Test 2: mTOR Biochemical Assay (FRAP1/mTOR TR-FRET tracer assay). As to conditions: mTOR Kinase Tracer 314. Format: binding. On the technique in general: TR-FRET usually uses a lanthanide donor and a delayed reading to cut background.
Test [1] has as its system constitutively active mTOR. Description: Test 3: TSC Assay (high content imaging of phospho-S6 (240/244) in TSC1−/− MEFs). Format: cell-based. As to conditions: Mus musculus, pS6 240/244 staining, 2 hrs compound treatment.
Method: This assay generates IC50 values for compounds that inhibit mTOR.
Quantification of pS6 Staining Using High-Content Imaging and Analysis
Day 0: Cell plating. Subconfluent TSC1−/− MEFs are harvested by trypsinization, resuspended in growth medium, and counted. […] The plates are briefly spun down and placed at 37° C. and 5% CO2. • 2. Day 1: Cell plates are washed into a PBS starve solution (contains glucose, sodium bicarbonate, HEPES and phenol red) using a 384-well plate washer. The wash protocol aspirates the volume down to 30 μL/well before dispensing 60 μL/well of the PBS starve solution. Aspiration and dispensing steps are repeated 8 times and a final volume of 30 μL/well is left. The cell plates are placed at 37° C. and 5% CO2 for 2 hrs. • Compound treatment. Compound dose responses are prepared in DMSO. The dose responses are then diluted 1:50 in medium. 10 ul of the diluted compound is added to 30 ul of cells, yielding a final 1:200 dilution of the original compound and final of 0.5% DMSO. Compound-treatments are performed in triplicates. The plates are placed at 37° C. and 5% CO2 for 2 hrs. Cells are then fixed by adding 10 μL/well 5× concentrated Mirsky's fixative. […] The cell plates are briefly spun down and incubated for 1 h at room temperature. Cells are then washed using a 384-well plate washer using a protocol which aspirates the volume down to 30 μL/well before dispensing 60 μL/well 1×TBS. Aspiration and dispensing steps are repeated 8 times and then an additional aspiration step leaves a final volume of 10 μL/well. Block buffer (1×TBS+0.1% Triton X-100+0.1% BSA) is then added at 25 μL/well and the plates are incubated at room temperature for 30 min. The cell plates are then aspirated down to 10 μL/well. […] Plates are incubated overnight at 4° C. • 3. […] The bottom of the plate is cleaned with 70% ethanol and then imaged using the InCell 1000 automated epifluorescence microscope. […] Cy5 images are acquired using an excitation of 620 nm (Chroma 620—60× filter), an emission of 700 nm (Chroma HQ700—75M filter) and an exposure time of 200 ms. A double band pass mirror is used for all images. • 4. Image analysis: The InCell Analysis software is used to analyze the images using the Dual Object algorithm. […] The Cy5 fluorescence intensity inside the collar is measured (cell intensity) and results are reported on an “Average per cell” basis. • 5. IC50 calculation: IC50s are calculated by plotting the cell intensity values on the y-axis with dose response values on the x-axis. IC50 values represent compound potency against mTOR.
Another test relates to H4 mCherry-GFP-LC3 cells. As to the kind of experiment: Test 4: Autophagy Assay (mCherry-GFP-LC3 reporter, high-content imaging). Format: cell-based. As to conditions: Homo sapiens, 16-18 h. An excerpt:
Autophagy is a catabolic pathway that degrades bulk cytosol in lysosomal compartments enabling amino acids and fatty acids to be recycled. […] To quantify autophagy induction by mTOR inhibitors, we use a mCherry-GFP-LC3 reporter which is amenable to retroviral delivery into mammalian cells, stable expression and analysis by fluorescence microscopy.
Described hereinafter is an imaging protocol and image recognition algorithm to visualize and measure changes in the autophagic pathway.
Quantification of Autophagy Using High-Content Imaging and Analysis
• 1. Day 0: Cell plating. Subconfluent H4 mCherry-GFP-LC3 cells are harvested by trypsinization, resuspended in growth medium, and counted (H4 cells: Human neuroglioma cell line (ATCC)). A cell suspension of 66′000 cells/mL is prepared and 30 μL are added into the wells of a 384-well plate using an electronic multichannel pipette. […] The cell plates are briefly spun down and placed at 37° C. and 5% CO2. • 2. Day 1: Compound treatment. Compound dose responses are prepared in DMSO. The dose responses are then diluted 1:50 in medium. 10 ul of the diluted compound is added to 30 ul of cells, yielding a final 1:200 dilution of the original compound and final of 0.5% DMSO. Compound-treatments are performed in triplicates. The 384-well plates are placed at 37° C. and 5% CO2. Compound treatment is performed for 16-18 h (see Note 1). • 3. Day 2: Cell fixation. Cells are fixed by adding 10 μL/well 5× concentrated Mirsky's fixative supplemented with 25 μg/mL Hoechst33342. […] The 384-well plate is briefly spun down and incubated for 1 h at room temperature. Cells are then washed using a 384-well plate washer using a protocol which aspirates the volume down to 10 μL/well before dispensing 100 μL/well 1×TBS. Aspiration and dispensing steps are repeated 4 times and a final volume of 100 μL/well is left. The plate is sealed using an adhesive PCR foil. • 4. Imaging. The bottom of the plate is cleaned with 70% ethanol and then imaged using the InCell 1000 automated epifluorescence microscope. 20× magnification is used and 4 different areas (fields) are imaged per well, this typically captures a total of around 400 cells per well. Hoechst33342 images are acquired using an excitation of 360 nm (D360—40× filter), an emission of 460 nm (HQ460—40M filter) and an exposure time of 150 ms. GFP images are acquired using an excitation of 475 nm (S47520× filter), an emission of 535 nm (HQ535—50M filter) and an exposure time of 1 s. mCherry images are acquired using an excitation of 535 nm (HQ535—50× filter), an emission of 620 nm (HQ620—60M filter) and an exposure time of 1 s. A quadruple band pass mirror is used for all images. • 5. Image analysis. The InCell Analysis software is used to analyze the images using the Multi Target Analysis algorithm. First, nuclei are detected in the Hoechst33342 image using top-hat segmentation and a minimal nuclear area of 50 μm^2. Cells are defined using a collar of 10 μm around the nuclei. Second, puncta (organelles) are identified in the mCherry image inside the cells using multi-top-hat segmentation. Third, the mask of the mCherry puncta is transferred onto the GFP image. Fourth, the GFP fluorescence intensity inside the mCherry puncta mask is measured (reference intensity). • 6. The ‘organelles’ parameter reflects mCherry-positive puncta of the mCherry-GFP-LC3 reporter and is used to calculate ‘LC3 puncta/cell’. For this purpose, the number of organelles is calculated per cell and averaged over all the cells in a given well (average per cell basis). mCherry-positive LC3 puncta numbers (y-axis) are plotted against the compound dose response values (x-axis) and EC50 values are calculated for each compound. EC50 values represent compound potency in terms of autophagy activation (e.g. increase in mCherry-positive LC3 puncta count). Notes • 1. Autophagy-modulation and redistribution of mCherry-GFP-LC3 can be already observed after a compound treatment time of 3-4 h. […]

Setting [2] is: Table 1, mCherry-positive LC3 puncta/cell.
The mark [3] stands for this setting: Table 4 (unit inferred), mCherry-positive LC3 puncta/cell.

Sequence of FRAP1/mTOR (P42345 1360-2549): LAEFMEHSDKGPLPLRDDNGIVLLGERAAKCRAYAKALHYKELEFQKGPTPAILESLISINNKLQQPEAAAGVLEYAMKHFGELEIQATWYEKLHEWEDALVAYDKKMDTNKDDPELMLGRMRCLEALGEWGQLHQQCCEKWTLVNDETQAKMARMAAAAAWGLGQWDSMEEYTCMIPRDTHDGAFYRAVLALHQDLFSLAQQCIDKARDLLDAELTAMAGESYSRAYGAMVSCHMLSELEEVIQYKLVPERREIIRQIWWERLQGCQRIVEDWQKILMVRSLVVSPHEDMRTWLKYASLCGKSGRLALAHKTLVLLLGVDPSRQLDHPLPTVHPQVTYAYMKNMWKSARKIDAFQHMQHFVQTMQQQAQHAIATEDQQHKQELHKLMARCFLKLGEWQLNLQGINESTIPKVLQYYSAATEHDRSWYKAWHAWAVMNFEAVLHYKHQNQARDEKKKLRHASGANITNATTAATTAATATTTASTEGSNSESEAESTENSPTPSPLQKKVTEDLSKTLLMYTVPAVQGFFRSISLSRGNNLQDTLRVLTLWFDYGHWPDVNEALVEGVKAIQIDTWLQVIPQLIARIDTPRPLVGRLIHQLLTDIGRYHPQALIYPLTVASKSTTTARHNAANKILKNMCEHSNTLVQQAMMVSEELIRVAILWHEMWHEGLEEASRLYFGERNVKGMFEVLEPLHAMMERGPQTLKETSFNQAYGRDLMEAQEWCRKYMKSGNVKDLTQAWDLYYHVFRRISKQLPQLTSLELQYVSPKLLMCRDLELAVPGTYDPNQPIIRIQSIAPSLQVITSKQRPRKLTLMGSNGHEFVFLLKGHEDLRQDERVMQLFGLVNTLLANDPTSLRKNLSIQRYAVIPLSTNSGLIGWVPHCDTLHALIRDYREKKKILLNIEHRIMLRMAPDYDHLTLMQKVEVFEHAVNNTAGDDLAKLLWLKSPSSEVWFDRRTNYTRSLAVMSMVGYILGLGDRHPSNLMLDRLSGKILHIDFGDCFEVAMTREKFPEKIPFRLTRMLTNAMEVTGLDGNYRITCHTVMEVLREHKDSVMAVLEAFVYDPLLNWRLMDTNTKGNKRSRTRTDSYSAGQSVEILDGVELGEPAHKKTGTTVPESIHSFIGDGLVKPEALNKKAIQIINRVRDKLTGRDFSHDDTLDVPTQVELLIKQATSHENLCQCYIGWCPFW
Sequence of PI3Kα (P42336 other isoform, or with tags, fused parts or gaps): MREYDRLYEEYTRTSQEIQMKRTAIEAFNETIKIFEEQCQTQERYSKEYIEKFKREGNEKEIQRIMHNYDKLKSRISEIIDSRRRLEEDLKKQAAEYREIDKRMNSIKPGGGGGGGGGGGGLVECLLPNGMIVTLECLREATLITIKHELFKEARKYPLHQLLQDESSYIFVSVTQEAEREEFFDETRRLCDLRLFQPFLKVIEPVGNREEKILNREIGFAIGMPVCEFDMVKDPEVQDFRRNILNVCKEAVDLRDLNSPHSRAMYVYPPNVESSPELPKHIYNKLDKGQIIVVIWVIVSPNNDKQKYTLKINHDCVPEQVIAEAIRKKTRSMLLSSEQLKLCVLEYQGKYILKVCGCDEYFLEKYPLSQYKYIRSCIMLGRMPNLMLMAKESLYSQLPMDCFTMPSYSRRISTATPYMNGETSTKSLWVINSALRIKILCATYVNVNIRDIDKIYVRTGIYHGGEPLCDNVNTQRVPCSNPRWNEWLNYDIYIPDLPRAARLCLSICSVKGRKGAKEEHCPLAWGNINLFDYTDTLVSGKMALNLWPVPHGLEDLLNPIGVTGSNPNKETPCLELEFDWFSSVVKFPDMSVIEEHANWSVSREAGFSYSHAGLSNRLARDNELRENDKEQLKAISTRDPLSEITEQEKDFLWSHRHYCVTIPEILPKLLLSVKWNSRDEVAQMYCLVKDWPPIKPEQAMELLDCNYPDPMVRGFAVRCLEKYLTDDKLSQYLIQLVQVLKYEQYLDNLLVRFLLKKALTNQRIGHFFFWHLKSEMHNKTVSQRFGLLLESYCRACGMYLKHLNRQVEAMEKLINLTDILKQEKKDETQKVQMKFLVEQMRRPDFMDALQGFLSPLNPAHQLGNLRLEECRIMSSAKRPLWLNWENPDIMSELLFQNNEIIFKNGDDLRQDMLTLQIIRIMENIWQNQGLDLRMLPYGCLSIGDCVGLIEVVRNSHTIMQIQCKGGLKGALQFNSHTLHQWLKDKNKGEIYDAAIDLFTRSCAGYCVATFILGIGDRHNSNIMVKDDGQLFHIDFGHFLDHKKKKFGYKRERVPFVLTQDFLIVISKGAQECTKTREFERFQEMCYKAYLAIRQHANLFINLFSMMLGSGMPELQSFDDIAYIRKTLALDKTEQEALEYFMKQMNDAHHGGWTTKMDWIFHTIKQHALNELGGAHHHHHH
Method for FRAP1/mTOR: IC50s for mTOR interacting compounds were assessed using the FRAP1/mTOR TR-FRET tracer assay (Invitrogen by Life Technologies). […] Compounds were serially diluted in DMSO (12-point, 4× dilution factor) and 1 μL of diluted compound was then added to each well and mixed by pipetting using a Biomek FX (Beckman Coulter).
Method for PI3Kα: L-a-phosphatidylinositol (PI), provided as 10 mg/ml solution in methanol, was transferred into a glass tube and dried under nitrogen beam. It was then resuspended in 3% OctylGlucoside (OG) by vortexing and stored at 4° C. The KinaseGlo Luminescent Kinase Assay (Promega, Madison/WI, USA) is a homogeneous HTS method of measuring kinase activity by quantifying the amount of ATP remaining in solution following a kinase reaction.
Kinase reactions were started by addition of 5 μl of ATP-mix containing in a final volume 10 μL 10 mM TRIS-HCl pH 7.5, 3 mM MgCl2, 50 mM NaCl, 0.05% CHAPS, 1 mM DTT and 1 μM ATP, and occurred at room temperature.
The PI3Kα construct is a fusion of p85α iSH2 domain and the respective p110 isoform. The p85α fragment and p110 isoform gene were generated by PCR from first strand cDNA generated by RT-PCR from commercial RNA from placenta, testis and brain as described below.
The p85 fragment was derived from plasmid p1661-2 digested with Nhe/Spe. The p110α fragment derived from its clone was verified by sequencing and used in LR410 as a SpeI/HindIII fragment. For the generation of the baculovirus expression vector LR410 the gateway LR reaction to transfer the insert into the Gateway adapted pBlueBac4.5 (Invitrogen) vector was used. The cloning vector pBlueBac4.5 (Invitrogen) was digested with Nhe/HindIII. […] The two reverse primers overlap and incorporate a 12×Gly linker and the N-terminal sequence of the p110α gene to the SpeI site. The PCR fragment was cloned into pCR2.1 TOPO (Invitrogen). Of the resulting clones, p1661-2 was determined to be correct by sequencing. This plasmid was digested with Nhe and SpeI and the resulting fragment was gel-isolated and purified for sub-cloning.
PI3Kα was purified in two chromatographic steps: immobilized metal affinity chromatography (IMAC) on a Ni sepharose resin (GE Healthcare) and gel filtration utilizing a Superdex 200 26/60 column (GE Healthcare). All buffers were chilled to 4° C. and lysis was performed chilled on ice. Column fractionation was performed at room temperature.

Take `C[C@@H]1COCCN1c1nc(N2CCOCC2)nc2[nH]c(-c3cccc4[nH]ccc34)nc12` [Example 20, 8-(1H-Indol-4-yl)-6-((R)-3-methyl-morpholin-4-yl)-2-morpholin-4-yl-9H-purine]: the values for the IC50 (at PI3Kα; at FRAP1/mTOR; in test [1]) were 6050 nM, 6 nM and 90 nM, respectively. In addition, in the test on H4 mCherry-GFP-LC3 cells (setting [2]), the midpoint of the response, the EC50, lay at 452 nM.
In the same order, the values of `c1cc2ccc(-c3nc4c(N5CCOCC5)nc(N5CCOCC5)nc4[nH]3)cc2[nH]1` [Example 28, 8-(1H-Indol-6-yl)-2,6-di-morpholin-4-yl-9H-purine] are 9050 nM, 372 nM, 458 nM and more than 200 nM.
As for `C[C@@H]1COCCN1c1nc(N2CCOC[C@H]2C)c2nc(-c3ccc4cc[nH]c4c3)[nH]c2n1` [Example 45, 8-(1H-Indol-6-yl)-2,6-bis-((R)-3-methyl-morpholin-4-yl)-9H-purine], the IC50 came out at 7080 nM against PI3Kα, 650 nM on FRAP1/mTOR and 989 nM in test [1]. In the test with H4 mCherry-GFP-LC3 cells (setting [3]), the EC50 was more than 400 nM.
For the molecule `C[C@H]1COCCN1c1nc(N2CCC(O)CC2)nc2[nH]c(-c3cccc4[nH]ccc34)nc12` [Example 16, 1-[8-(1H-Indol-4-yl)-6-((S)-3-methyl-morpholin-4-yl)-9H-purin-2-yl]-piperidin-4-ol], the figures for the IC50 (on PI3Kα; against FRAP1/mTOR; in test [1]) were 7300 nM, 160 nM and 460 nM, respectively. The molecule further displayed an EC50 in the test with H4 mCherry-GFP-LC3 cells (setting [2]) of 2000 nM.
With `C[C@@H]1COCCN1c1nc(N2CCOC[C@@H]2C)nc2[nH]c(-c3cccc4[nH]ccc34)cc12` [Example 55, 6-(1H-Indol-4-yl)-4-((R)-3-methyl-morpholin-4-yl)-2-((S)-3-methyl-morpholin-4-yl)-7H-pyrrolo[2,3-d]pyrimidine], the IC50 is 1440 nM on PI3Kα, 2670 nM on FRAP1/mTOR and 71 nM in test [1]. Further, the EC50 with H4 mCherry-GFP-LC3 cells (setting [3]) is 1000 nM.
With `C[C@H]1COCCN1c1nc(N2CCC(F)(F)CC2)nc2[nH]c(-c3cccc4[nH]ccc34)nc12` [Example 5, 2-(4,4-Difluoro-piperidin-1-yl)-8-(1H-indol-4-yl)-6-((S)-3-methyl-morpholin-4-yl)-9H-purine], the IC50 is more than 9100 nM against PI3Kα, 150 nM against FRAP1/mTOR and 551 nM in test [1]. In the test with H4 mCherry-GFP-LC3 cells (setting [2]), this molecule registered an EC50 of 2590 nM.
For `COc1ccc(-c2nc3c(N4CCOC[C@@H]4C)nc(N4CCOCC4)nc3[nH]2)cc1C(=O)O` [Example 9, 2-Methoxy-5-[6-((S)-3-methyl-morpholin-4-yl)-2-morpholin-4-yl-9H-purin-8-yl]-benzoic acid] the same measures were more than 9100 nM, 3200 nM, 7300 nM and more than 10000 nM.
For `CC(=O)Nc1cccc(-c2nc3c(N4CCOCC4)nc(N4CCOCC4)nc3[nH]2)c1` [Example 30, N-[3-(2,6-Di-morpholin-4-yl-9H-purin-8-yl)-phenyl]-acetamide], the figures for the IC50 (against PI3Kα; at FRAP1/mTOR; in test [1]) were 3010 nM, 1450 nM and 1520 nM, respectively. In the test on H4 mCherry-GFP-LC3 cells (setting [2]), this molecule registered an EC50 of more than 2000 nM.
With `CC1(C)COCCN1c1nc(N2CCOCC2)nc2[nH]c(-c3ccc4cc[nH]c4c3)nc12` [Example 39, 6-(3,3-Dimethyl-morpholin-4-yl)-8-(1H-indol-6-yl)-2-morpholin-4-yl-9H-purine], the IC50 against PI3Kα was determined as 2530 nM; at FRAP1/mTOR, 160 nM; in test [1] it was 146 nM. For the same molecule, the EC50 with H4 mCherry-GFP-LC3 cells (setting [3]) is 2320 nM.
For `Nc1cccc(-c2nc3c(N4CCOCC4)nc(N4CCOCC4)nc3[nH]2)c1` [Example 29, 3-(2,6-Di-morpholin-4-yl-9H-purin-8-yl)-phenylamine], the IC50 is 3860 nM at PI3Kα, 1210 nM at FRAP1/mTOR and 2080 nM in test [1]. Also, the EC50 with H4 mCherry-GFP-LC3 cells (setting [2]) is more than 5000 nM.
In the case of `C[C@H]1COCCN1c1nc(N2CC3CCC(C2)O3)nc2[nH]c(-c3cccc4[nH]ccc34)nc12` [Example 52, 8-(1H-Indol-4-yl)-6-((S)-3-methyl-morpholin-4-yl)-2-(8-oxa-3-aza-bicyclo[3.2.1]oct-3-yl)-9H-purine], the IC50 was found to be 420 nM against PI3Kα, 50 nM on FRAP1/mTOR and 88 nM in test [1]. In the test on H4 mCherry-GFP-LC3 cells (setting [3]), this molecule registered an EC50 of 386 nM.
For the molecule `C[C@H]1COCCN1c1nc(N2CCOC[C@@H]2C)c2nc(-c3cccc4[nH]ccc34)[nH]c2n1` [Example 22, 8-(1H-Indol-4-yl)-2,6-bis-((S)-3-methyl-morpholin-4-yl)-9H-purine], the IC50 on PI3Kα turned out to be 5860 nM; at FRAP1/mTOR, 5 nM; in test [1], 113 nM. This molecule registered an EC50 in the test on H4 mCherry-GFP-LC3 cells (setting [2]) of 761 nM.
`c1cc(-c2nc3c(N4C[C@@H]5C[C@H]4CO5)nc(N4CCOCC4)nc3[nH]2)c2cc[nH]c2c1` [Example 50, 8-(1H-Indol-4-yl)-2-morpholin-4-yl-6-(1S,4S)-2-oxa-5-aza-bicyclo[2.2.1]hept-5-yl-9H-purine]: the half-inhibitory concentration (IC50) was 4220 nM against PI3Kα, 1200 nM against FRAP1/mTOR and 920 nM in test [1]. In the test with H4 mCherry-GFP-LC3 cells (setting [3]), this molecule returned an EC50 of 8670 nM.
Consider `c1cc(-c2nc3c(N4CCOCC4)nc(N4CCOCC4)nc3[nH]2)c2cc[nH]c2c1` [Example 26, 8-(1H-Indol-4-yl)-2,6-di-morpholin-4-yl-9H-purine], for which the IC50 against PI3Kα is 570 nM; against FRAP1/mTOR, 8 nM; in test [1] it was 81 nM. In the test with H4 mCherry-GFP-LC3 cells (setting [2]), this molecule returned an EC50 of 184 nM.
`C[C@@H]1COCCN1c1nc(N2CCOC[C@@H]2C)nc2[nH]c(-c3cccc4[nH]ccc34)nc12` [Example 43, 8-(1H-Indol-4-yl)-2-((S)-3-methyl-morpholin-4-yl)-6-((R)-3-methyl-morpholin-4-yl)-9H-purine]: the values for the IC50 (against PI3Kα; at FRAP1/mTOR; in test [1]) were 1010 nM, 40 nM and 39 nM, respectively. The response in the test with H4 mCherry-GFP-LC3 cells (setting [3]) was half-maximal at 160 nM (EC50).
For the molecule `c1cc(-c2nc3c(N4CC5CCC(C4)O5)nc(N4CCOCC4)nc3[nH]2)c2cc[nH]c2c1` [Example 8, 8-(1H-Indol-4-yl)-2-morpholin-4-yl-6-(8-oxa-3-aza-bicyclo[3.2.1]oct-3-yl)-9H-purine], the IC50 on PI3Kα was more than 9100 nM; against FRAP1/mTOR, 41 nM; in test [1] it was 127 nM. The molecule further showed an EC50 in the test with H4 mCherry-GFP-LC3 cells (setting [2]) of 731 nM.
Consider `C[C@@H]1COCCN1c1nc(N2CCOC[C@@H]2C)c2nc(-c3cccc4[nH]ccc34)[nH]c2n1` [Example 18, 8-(1H-Indol-4-yl)-2-((R)-3-methyl-morpholin-4-yl)-6-((S)-3-methyl-morpholin-4-yl)-9H-purine], for which the half-maximal inhibitory concentration (IC50) against PI3Kα was 5050 nM; on FRAP1/mTOR it was 46 nM; in test [1], 70 nM. The same molecule registered an EC50 in the test on H4 mCherry-GFP-LC3 cells (setting [2]) of 2500 nM.
As to `C[C@@H]1COCCN1c1nc(N2CCOC[C@@H]2C)nc2[nH]c(-c3cccc4c3CCN4)nc12` [Example 41, 8-(2,3-Dihydro-1H-indol-4-yl)-2-((S)-3-methyl-morpholin-4-yl)-6-((R)-3-methyl-morpholin-4-yl)-9H-purine], the results for the IC50 (on PI3Kα; against FRAP1/mTOR; in test [1]) were 3350 nM, 30 nM and 457 nM, respectively. The molecule further came in with an EC50 in the test on H4 mCherry-GFP-LC3 cells (setting [3]) of 2900 nM.
On to `c1cc2ncc(-c3nc4c(N5CCOCC5)nc(N5CCOCC5)nc4[nH]3)cc2[nH]1` [Example 13, 2,6-Di-morpholin-4-yl-8-(1H-pyrrolo[3,2-b]pyridin-6-yl)-9H-purine], for which the IC50 on PI3Kα turned out to be 430 nM; on FRAP1/mTOR, 469 nM; in test [1] it was 2780 nM. Moreover, it took 8530 nM to reach a half-maximal effect in the test on H4 mCherry-GFP-LC3 cells (setting [2]) (EC50).

A word on the IC50: it is the concentration at which inhibition is half-maximal. A low value points to inhibition by little substance. One may read the EC50 as the concentration that produces a half-maximal response. A lower EC50 goes with greater potency.
